Reference: patent publication US20100311803A1, “METHOD FOR REDUCING INFLAMMATORY RESPONSES AND INFLAMMATION” (Adelaide Research & Innovation Pty Ltd, priority 2006, published 2010)

Columns and labels:
[1] = Evan's blue leakage into brain tissue (blood brain barrier) after diffuse axonal brain injury; type: in vivo; conditions: rat diffuse axonal injury
Method: (§1) We chose to use the compound N-acetyl-L-tryptophan. To induce a primary brain injury a rat model of diffuse axonal injury was used (Heath D L and Vink R (1997). Magnesium sulphate improves neurologic outcome following severe closed head injury in rats. Neurosci Lett; 228: 175-8). N-acetyl-L-tryptophan was then administered intravenously 30 minutes after injury, whilst control animals received drug vehicle alone.

[2] = system: IL-1β mRNA; assay: IL-1β mRNA expression in brain tissue after brain injury (RT-PCR); type: in vivo, rat; conditions: 10^−5 mol/kg i.v. 30 minutes after injury; brain tissue at 6 hours after injury; normalised to rpL32 (FIG. 2)
Method: (§2) In order to examine the effects on the cellular inflammatory response, N-acetyl-L-tryptophan was administered intravenously at a dose of 10^−5 mol/kg after injury. The expression of mRNA for the inflammatory cytokines IL-1β, IL-6 and TNFα in brain tissue was determined by reverse transcription followed by a polymerase chain reaction (RT-PCR). mRNA levels were normalised with respect to expression of rpL32. Brain tissue samples were collected at 6 hours after injury. Levels of expression of mRNA for the inflammatory cytokines were compared in non-injured animals (sham), injured animals administered drug vehicle alone (control), and injured animals administered a substance P receptor antagonist (NK1). mRNA expression was determined for IL-1β (FIG. 2), IL-6 (FIG. 3) and TNFα (FIG. 4).

[3] = system: IL-6 mRNA; assay: IL-6 mRNA expression in brain tissue after brain injury (RT-PCR); type: in vivo, rat; conditions: 10^−5 mol/kg i.v. 30 minutes after injury; brain tissue at 6 hours after injury; normalised to rpL32 (FIG. 3)
Method: as §2

[4] = system: TNFα mRNA; assay: TNFα mRNA expression in brain tissue after brain injury (RT-PCR); type: in vivo, rat; conditions: 10^−5 mol/kg i.v. 30 minutes after injury; brain tissue at 6 hours after injury; normalised to rpL32 (FIG. 4)
Method: as §2

[5] = Functional outcome and mortality of brain-injured animals; type: in vivo, rat; conditions: brain injury; administered after injury
Method: as §1
In order to examine the effects on the cellular inflammatory response, N-acetyl-L-tryptophan was administered intravenously at a dose of 10^−5 mol/kg after injury.

[6] = system: serum interleukin 6; assay: Serum IL-6 levels (ELISA) after systemic insult (trauma; trauma plus hypoxia and hypotension); type: in vivo, rat; conditions: 10^−5 mol/kg i.v. 30 minutes after the insult
Method: A whole variety of severe insults are capable of triggering a systemic inflammatory response, and subsequent shock reaction. Two approaches were used in these studies, namely trauma (diffuse axonal injury), and an extended period of hypoxia and hypotension. N-acetyl-L-tryptophan was administered intravenously 30 minutes after the insult, whilst control animals received drug vehicle alone. A systemic inflammatory response, generated as a result of these triggers, was determined by a rise in serum interleukin 6 levels. Blood samples were collected at 6 hours after the insult. Changes in serum IL-6 levels were quantified using an enzyme-linked immunosorbent assay (ELISA). In order to examine the effects of an NK1 antagonist on the systemic inflammatory response, N-acetyl-L-tryptophan was administered intravenously at a dose of 10^−5 mol/kg 30 minutes after the insult. Serum levels of IL-6 were compared between animals that were not subject to any insult (sham), animals subject to an insult and then administered drug vehicle alone (control), and animals subject to an insult and administered a substance P receptor antagonist (NK1). IL-6 levels were determined following trauma (FIG. 5), and trauma followed by 15 minutes of hypoxia and hypotension (FIG. 6).

[7] = Functional outcome and recovery after trauma or trauma plus hypoxia and hypotension; type: in vivo, rat; conditions: either trauma, or trauma plus hypoxia and hypotension
Method: A whole variety of severe insults are capable of triggering a systemic inflammatory response, and subsequent shock reaction. Two approaches were used in these studies, namely trauma (diffuse axonal injury), and an extended period of hypoxia and hypotension. N-acetyl-L-tryptophan was administered intravenously 30 minutes after the insult, whilst control animals received drug vehicle alone. […] This level of recovery was never seen in the non-treated animals.

CC(=O)N[C@@H](Cc1c[nH]c2ccccc12)C(=O)O [N-acetyl-L-tryptophan]
closure of the blood-brain barrier, dependence on dose ([1]; intravenously 30 minutes after injury (FIG. 1)): dose-dependent manner | leakage of Evan's blue dye into the brain tissue (closure of the blood brain barrier) ([1]; intravenously 30 minutes after injury, vs vehicle control (FIG. 1)): reduced leakage | expression of IL-1β mRNA in brain tissue with respect to non-injured animals [2]: no significant differences | expression of IL-6 mRNA in brain tissue with respect to non-injured animals [3]: no significant differences | expression of TNFα mRNA in brain tissue with respect to non-injured animals [4]: no significant differences | functional outcome of the injured animals (motor, cognitive and behavioural outcomes) [5]: significantly improved | mortality [5]: significant reduction | serum IL-6 levels with respect to sham animals ([6]; trauma (diffuse axonal injury), blood at 6 hours (FIG. 5)): no significant differences | serum IL-6 levels with respect to sham animals ([6]; trauma followed by 15 minutes of hypoxia and hypotension, blood at 6 hours (FIG. 6)): no significant differences | time to normal physiological (spontaneous breathing) and behavioural (feeding and grooming) responses after treatment [7]: ≤ 60 minutes | functional outcome of the animals ([7]; i.v. 30 minutes after the insult): significantly improved
